Activity calls are given as the source filed them. The rule behind the calls is not given here.
Experiments:
Tamarindus indica [1] = assay: Binding affinity to tamarind seed polysaccharide by dynamic dialysis
Tamarindus indica [2] = assay: Binding affinity to tamarind seed polysaccharide by NMR

Activity (Tamarindus indica [1]): Active
Activity (Tamarindus indica [2]): Active
Structure (SMILES): CN1CCC(=C2c3ccccc3CC(=O)c3sccc32)CC1

From ChEMBL document CHEMBL1155798, “Enhanced affinity of ketotifen toward tamarind seed polysaccharide in comparison with hydroxyethylcellulose and hyaluronic acid: a nuclear magnetic resonance investigation” (Bioorg Med Chem, 2008)
